From patent US20240150293A1, “SPIROCYCLOHEXANE DERIVATIVES, PHARMACEUTICAL COMPOSITIONS CONTAINING THEM AND THEIR USES AS ANTI-APOPTOTIC INHIBITORS” (LES LABORATOIRES SERVIER, priority 2021, published 2024) come the findings set out here.

One may read the pKi as the Ki on a negative log10 scale, so that one unit is a factor of ten.

pIC50, pKi: −log10 of the molar value. Where two headings read alike, the source gives them in different places.

Assay [1] has as its system NCI-H929 cell lines. Nature of the assay: In vitro cytotoxicity, CellTiter-Glo (CTG) assay (Example B, Method B). The class given is cell-based. Particulars: Homo sapiens, NCI-H929, 48 h, NCI-H929 cells, 48 h incubation, read-out: C50. In short, it runs like this: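 NCI-H929 cells exposed to an 11-point compound series from 10 mM DMSO stocks (top final 30 μM) for 48 h at 37° C., 5% CO2. Viability measured as ATP by CellTiter-Glo luminescence; C50 is the concentration giving 50% cellular viability.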
For orientation: In ATP-based viability assays light output follows the ATP content of the culture.

Assay [2] addresses Cy5-labelled Mcl1 (amino acids 171-321) C286S protein (UniProtKB Q07820) (Homo sapiens (Human), UniProt Q07820, C286S). Nature of the assay: Inhibition of Mcl-1 by the fluorescence quenching assay (Example A, Method B). It is filed as binding. In a few lines: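 Cy5-labelled Mcl1 171-321 C286S (1 nM) quenched by TQ5WS-labelled PUMA peptide (10, 20 or 400 nM); displacement raises fluorescence (Ex 620/Em 680 nm). Buffer 10 mM HEPES, 150 mM NaCl, 0.05% Tween 20, pH 7.4, 5% DMSO; 2 h at room temperature, 11-point curves, IC50 converted to Ki (cKi/eKi).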

Sequence of Cy5-labelled Mcl1 (amino acids 171-321) C286S protein (Q07820 171-321 C286S): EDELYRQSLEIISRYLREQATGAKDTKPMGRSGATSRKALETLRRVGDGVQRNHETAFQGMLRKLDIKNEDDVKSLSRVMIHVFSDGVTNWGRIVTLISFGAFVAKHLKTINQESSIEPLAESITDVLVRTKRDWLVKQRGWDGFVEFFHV

For `C[C@@H](COc1ccnc2c1[C@H](C)CCC2)C[C@H]1Cc2cc3c(cc2[C@]12CC[C@@](Nc1cccc(Cl)c1)(C(=O)OCOP(=O)(OC(C)(C)C)OC(C)(C)C)CC2)OCO3` [Example 951, [(di-tert-butoxyphosphoryl)oxy]methyl (1r,4S,6′S)-4-(3-chloroanilino)-6′-[(2R)-2-methyl-3-{[(5R)-5-methyl-5,6,7,8-tetrahydroquinolin-4-yl]oxy}propyl]-6′,7′-dihydro-2′H-spiro[cyclohexane-1,5′-indeno[5,6-d][1,3]dioxole]-4-carboxylate], in assay [1], the pIC50 is 5.75. Also, the pKi in assay [2] is 7.43.

For `COc1cc2c(cc1F)CN(C[C@@H](C)COc1ccnc3c1[C@H](C)CCC3)[C@]21CC[C@](Nc2cccc(Cl)c2)(C(=O)O)CC1` [Example 43, (1s,4S)-4-(3-chloroanilino)-5′-fluoro-6′-methoxy-2′-[(2R)-2-methyl-3-{[(5R)-5-methyl-5,6,7,8-tetrahydroquinolin-4-yl]oxy}propyl]-2′,3′-dihydrospiro[cyclohexane-1,1′-isoindole]-4-carboxylic acid], in assay [1], the pIC50 is 6.79. In addition, the pKi in assay [2] (Ki determined from IC50) is 9.60.

Consider `C[C@@H](COc1ccnc2c1[C@H](C)CCC2)C[C@@H]1Cc2ccc(OCC3CC3)cc2[C@]12CC[C@@](Nc1cccc(Cl)c1)(C(=O)O)CC2` [Example 790, (1r,2′R,4R)-4-(3-chloroanilino)-6′-(cyclopropylmethoxy)-2′-[(2R)-2-methyl-3-{[(5R)-5-methyl-5,6,7,8-tetrahydroquinolin-4-yl]oxy}propyl]-2′,3′-dihydrospiro[cyclohexane-1,1′-indene]-4-carboxylic acid], for which the pIC50 in assay [1] was 5.84. Besides, the pKi in assay [2] is 9.12.

`CC(C)[C@@H]1CCOc2cc3c(cc2O1)[C@]1(CC[C@@](Nc2cccc(Cl)c2)(C(=O)O)CC1)[C@@H](C[C@@H](C)COc1ccnc2c1[C@H](C)CCC2)C3` [Example 998, (1r,4S,4'S,8′S)-4-(3-chloroanilino)-8′-[(2R)-2-methyl-3-{[(5R)-5-methyl-5,6,7,8-tetrahydroquinolin-4-yl]oxy}propyl]-4′-(propan-2-yl)-3′,4′,8′,9′-tetrahydro-2′H-spiro[cyclohexane-1,7′-indeno[5,6-b][1,4]dioxepine]-4-carboxylic acid]: in assay [1], the pIC50 is 7.20. In addition, the pKi in assay [2] was 9.97.

With `C[C@@H](COc1ccnc2c1[C@H](C)CCC2)C[C@@H]1Cc2ccc(-c3ccsc3)cc2[C@]12CC[C@@](Nc1cccc(Cl)c1)(C(=O)O)CC2` [Example 879, (1r,2′R,4R)-4-(3-chloroanilino)-2′-[(2R)-2-methyl-3-{[(5R)-5-methyl-5,6,7,8-tetrahydroquinolin-4-yl]oxy}propyl]-6′-(thiophen-3-yl)-2′,3′-dihydrospiro[cyclohexane-1,1′-indene]-4-carboxylic acid], in assay [1], the pIC50 is 5.87. For the same compound, the pKi in assay [2] is 8.39.

Turning to `C[C@@H](COc1ccnc2c1[C@H](C)CC[C@H]2F)C[C@H]1Cc2cc3c(cc2[C@]12CC[C@@](Nc1cccc(Cl)c1)(C(=O)O)CC2)OCCO3` [Example 964, (1r,4S,7′S)-4-(3-chloroanilino)-7′-[(2R)-3-{[(5R,8R)-8-fluoro-5-methyl-5,6,7,8-tetrahydroquinolin-4-yl]oxy}-2-methylpropyl]-2′,3′,7′,8′-tetrahydrospiro[cyclohexane-1,6′-indeno[5,6-b][1,4]dioxine]-4-carboxylic acid], the pIC50 in assay [1] was 6.96. Further, the pKi in assay [2] was 10.24.

On to `COc1cc2c(cc1OC)[C@]1(CC[C@@](Nc3cccc(Cl)c3)(C(=O)O)CC1)[C@@H](C[C@@H](C)COc1ccnc3c1[C@H](C)CCC3)C2` [Example 835, (1r,2′S,4S)-4-(3-chloroanilino)-5′,6′-dimethoxy-2′-[(2R)-2-methyl-3-{[(5R)-5-methyl-5,6,7,8-tetrahydroquinolin-4-yl]oxy}propyl]-2′,3′-dihydrospiro[cyclohexane-1,1′-indene]-4-carboxylic acid], for which the pIC50 in assay [1] was 6.84. The pKi in assay [2] is 9.36.

In the case of `C[C@@H](COc1ccnc2c1[C@H](C)CCC2)CN1Cc2ccccc2[C@]12CC[C@@](Nc1cccc(Cl)c1)(C(=O)O)CC2` [Example 40, (1s,4S)-4-(3-chloroanilino)-2′-[(2R)-2-methyl-3-{[(5R)-5-methyl-5,6,7,8-tetrahydroquinolin-4-yl]oxy}propyl]-2′,3′-dihydrospiro[cyclohexane-1,1′-isoindole]-4-carboxylic acid], the pIC50 in assay [1] was 6.55. Besides, the negative-log Ki (pKi) in assay [2] (Ki determined from IC50) was 9.01.

For `CC1Oc2cc3c(cc2O1)[C@]1(CC[C@@](Nc2cccc(Cl)c2)(C(=O)O)CC1)[C@@H](C[C@@H](C)COc1ccnc2c1[C@H](C)CCC2)C3` (single isomer, unassigned) [Example 965], the pIC50 in assay [1] was 7.16. The pKi in assay [2] was 10.76.

As for `CCN(CC)C(=O)OCOC(=O)[C@]1(Nc2cccc(Cl)c2)CC[C@@]2(CC1)c1cc3c(cc1C[C@@H]2C[C@@H](C)COc1ccnc2c1[C@H](C)CCC2)OCO3` [Example 950, [(diethylcarbamoyl)oxy]methyl (1r,4S,6′S)-4-(3-chloroanilino)-6′-[(2R)-2-methyl-3-{[(5R)-5-methyl-5,6,7,8-tetrahydroquinolin-4-yl]oxy}propyl]-6′,7′-dihydro-2′H-spiro[cyclohexane-1,5′-indeno[5,6-d][1,3]dioxole]-4-carboxylate], the pIC50 in assay [1] is under 4.52. In addition, in assay [2] (@ 1 μM, read-out: Mcl-1 inhibition, % at a single concentration), the inhibition at 1 µM came out at 7.1%.

Regarding `C[C@@H](COc1ccnc2c1[C@H](C)CCC2)CN1Cc2cc3c(cc2[C@]12CC[C@@](Nc1ccc(F)c(Cl)c1)(C(=O)O)CC2)OCO3` [Example 47, (1s,4S)-4-(3-chloro-4-fluoroanilino)-6′-[(2R)-2-methyl-3-{[(5R)-5-methyl-5,6,7,8-tetrahydroquinolin-4-yl]oxy}propyl]-6′,7′-dihydro-2′H-spiro[cyclohexane-1,5′-[1,3]dioxolo[4,5-f]isoindole]-4-carboxylic acid], in assay [1], the pIC50 was 7.43. For the same compound, in assay [2] (Ki determined from IC50), the pKi is 10.03.

With `C[C@@H](COc1ccnc2c1[C@H](C)CCC2)C[C@H]1Cc2cc3c(cc2[C@]12CC[C@@](Nc1cccc(Cl)c1)(C(=O)NS(C)(=O)=O)CC2)OCO3` [Example 957, (1r,4S,6′S)-4-(3-chloroanilino)-N-(methanesulfonyl)-6′-[(2R)-2-methyl-3-{[(5R)-5-methyl-5,6,7,8-tetrahydroquinolin-4-yl]oxy}propyl]-6′,7′-dihydro-2′H-spiro[cyclohexane-1,5′-indeno[5,6-d][1,3]dioxole]-4-carboxamide], the pIC50 in assay [1] is 5.33. Also, the pKi in assay [2] is 8.20.

Turning to `C[C@@H](COc1ccnc2c1[C@H](C)CCC2)C[C@H]1Cc2cc3c(cc2[C@]12CC[C@@](Nc1cccc(Cl)c1)(C(=O)O)CC2)O[C@H](C)CCO3` [Example 987, (1r,4S,4′R,8′S)-4-(3-chloroanilino)-4′-methyl-8′-[(2R)-2-methyl-3-{[(5R)-5-methyl-5,6,7,8-tetrahydroquinolin-4-yl]oxy}propyl]-3′,4′,8′,9′-tetrahydro-2′H-spiro[cyclohexane-1,7′-indeno[5,6-b][1,4]dioxepine]-4-carboxylic acid], in assay [1], the pIC50 is 7.42. In addition, the pKi in assay [2] was 11.35.
